Data from patent US20100204108A1, “USE OF NEUROTROPHIC FACTOR FOR RETINAL CHOLINERGIC NEURONS (NFRCN) AND CHORIONIC GONADOTROPIN-BETA (109-145) AS THERAPEUTIC AGENTS” (priority 2007, published 2010).
Ends that are not written are not given here.

Assays:
[1] = system: HIV-1IIIB; details: positive controls
[2] = system: HCMV strain AD169; test: HCMV plaque formation assay in MRC-5 cells; details: 10 micrograms per ml, 7-10 days
[3] = system: Th1/Th2 cytokines in spleen cells; test: Th1/Th2 cytokine profiling assay (Ovalbumin-restimulated spleen cells, CBA kit); assay type: cell-based, Balb/c mice; details: 10 micrograms per ml; Ovalbumin restimulation; 72 hours
[4] = system: LPS-induced TNF-alpha production in human macrophages; test: TNF alpha production assay (LPS-stimulated macrophages, ELISA); assay type: cell-based; details: 10 micrograms per ml; LPS 200 ng/ml; overnight
From the text: Not stimulated macrophages served as negative background control.

[5] = system: HUVEC; test: Endothelial tube formation assay; assay type: cell-based, human; details: 10 micrograms per ml, 20 hours
From the text: Positive control was vehicle only.

[6] = system: hepatitis B virus (HBV) ayw strain; test: HBV assay in HepG2-2.2.15 cells, secreted HBV DNA by TaqMan PCR; assay type: cell-based; details: 10 micrograms per ml, six days, HBV DNA in supernatant

| Compound | antiviral activity of positive control compounds (HIV-1) [1] | inhibition of HCMV plaque formation as compared to the virus control [2] | IFNγ spleen cells; TH1 response (% of control) [3] | IL-2 spleen cells (% of control) [3] | IL-4 spleen cells; TH2 response (% of control) [3] | IL-5 spleen cells; TH2 response (% of control) [3] | TNF-a spleen cells; TH1 response (% of control) [3] | induction of the LPS-induced TNF-alpha production in human macrophages [4] [%] | inhibition of the tube formation of endothelial cells [5] [%] | inhibition of HBV replication as compared to the virus control infection [6] [%] |
| --- | --- | --- | --- | --- | --- | --- | --- | --- | --- | --- |
| Cc1cn([C@H]2C[C@H](N=[N+]=[N-])[C@@H](CO)O2)c(=O)[nH]c1=O [AZT] | expected levels of antiviral activity | – | – | – | – | – | – | – | – | – |
| CC(C)(C)NC(=O)[C@@H]1CN(Cc2cccnc2)CCN1C[C@@H](O)C[C@@H](Cc1ccccc1)C(=O)N[C@H]1c2ccccc2C[C@H]1O [indinavir] | expected levels of antiviral activity | – | – | – | – | – | – | – | – | – |
| Tyr-Leu-Leu-Pro-Ala-Gln-Val-Asn-Ile-Asp-OH (YLLPAQVNID-OH) [peptide 1] | – | did not inhibit | 135.2 % of control | 215.4 % of control | 138.4 % of control | 111.1 % of control | 165.0 % of control | 18 | 25 | 65.0 |
